Results reported in ChEMBL document CHEMBL1148796 (J Med Chem, 2007).

Assays:
[1] = Selectivity index, ratio of TC50 for C8166 cells to ED50 for HIV1; assay type: functional
[2] = system: Human immunodeficiency virus 1; assay: Antiviral activity against HIV1 RT Y181C mutant in MT4 cells by MTT assay; assay type: functional; conditions: Human immunodeficiency virus 1, MT4; read-out: ED50 (the source's name)
[3] = Cytotoxicity against MT4 cells by MTT assay; assay type: cell-based; conditions: human, read-out: TC50 (the source's name)
[4] = system: Human immunodeficiency virus 1; assay: Antiretroviral activity against HIV1 wild type in C8166 cells by MTT assay; assay type: functional; conditions: Human immunodeficiency virus 1, C8166; read-out: ED50 (the source's name)
[5] = system: Human immunodeficiency virus 1; assay: Antiviral activity against HIV1 3B in MT4 cells by MTT assay; assay type: functional; conditions: Human immunodeficiency virus 1, 3B, read-out: ED50 (the source's name)
[6] = Cytotoxicity against mock-infected C8166 cells by MTT assay; assay type: cell-based; conditions: human, read-out: TC50 (the source's name)
[7] = system: Human immunodeficiency virus 1; assay: Antiviral activity against HIV1 RT K103N-Y181C mutant in MT4 cells by MTT assay; assay type: functional; conditions: Human immunodeficiency virus 1, MT4; read-out: ED50 (the source's name)
[8] = system: Human immunodeficiency virus 1; assay: Antiretroviral activity against wild type HIV1 in MT4 cells by MTT assay; assay type: functional; conditions: Human immunodeficiency virus 1, MT4; read-out: ED50 (the source's name)
[9] = Selectivity index, ratio of TC50 for MT4 cells to ED50 for HIV1; assay type: functional
[10] = target: Human immunodeficiency virus type 1 reverse transcriptase (Human immunodeficiency virus 1) (UniProt Q72547)
Description: Inhibition of wild type HIV1 RT

[11] = Selectivity index, ratio of TC50 for lymphocytes to ED50 for HIV1 3B; assay type: functional, Homo sapiens
[12] = system: Human immunodeficiency virus 1; assay: Antiviral activity against HIV1 RT 112 mutant in lymphocytes assessed as reduction of p24 antigen production; assay type: functional; conditions: read-out: ED50 (the source's name)
[13] = Selectivity index, ratio of TC50 for macrophages to ED50 for HIV1 3BBa-L; assay type: functional
[14] = Selectivity index, ratio of TC50 for lymphocytes to ED50 for HIV1 RT 112 mutant; assay type: functional
[15] = system: Human immunodeficiency virus 1; assay: Antiretroviral activity against HIV1 3BBa-L in macrophages assessed as reduction of p24 antigen production; assay type: functional; conditions: Human immunodeficiency virus 1, 3BBa-L; read-out: ED50 (the source's name)
[16] = system: Human immunodeficiency virus 1; assay: Antiviral activity against HIV1 RT AB1 mutant in lymphocytes assessed as reduction of p24 antigen production; assay type: functional; conditions: read-out: ED50 (the source's name)
[17] = system: Human immunodeficiency virus type 1 reverse transcriptase (Human immunodeficiency virus 1), Q72547 [L100I]
Description: Inhibition of HIV1 RT L100I mutant

[18] = Selectivity index, ratio of TC50 for lymphocytes to ED50 for HIV1 RT AB1 mutant; assay type: functional
[19] = system: Human immunodeficiency virus type 1 reverse transcriptase (Human immunodeficiency virus 1), Q72547 [Y181I]
[20] = system: Human immunodeficiency virus type 1 reverse transcriptase (Human immunodeficiency virus 1), Q72547 [K103N]
Description: Inhibition of HIV1 RT K103N mutant

[21] = system: Human immunodeficiency virus 1; assay: Antiviral activity against wild type HIV1 3B in lymphocytes assessed as reduction of p24 antigen production; assay type: functional; conditions: Human immunodeficiency virus 1, 3B; read-out: ED50 (the source's name)
[22] = Cytotoxicity against lymphocytes; assay type: cell-based, Lymphocyte; conditions: human, read-out: TC50 (the source's name)
[23] = Cytotoxicity against macrophages; assay type: cell-based, Macrophage; conditions: human, read-out: TC50 (the source's name)

Row | SMILES | Selectivity index [1] | EC50 [2] [nM] | CC50 [3] [nM] | EC50 [4] [nM] | EC50 [5] [nM] | CC50 [6] [nM] | EC50 [7] [nM] | EC50 [8] [nM] | Selectivity index [9] | other results
1 | Cc1cc(C)cc(S(=O)(=O)c2c(C(N)=O)[nH]c3c(F)cc(F)cc23)c1 | >800 | 1500 | > 20000 | 25 | 7 | > 20000 | > 20000 | 7 | >2857 | –
2 | Cc1cc(C)cc(S(=O)(=O)c2c(C(N)=O)[nH]c3ccc(F)c(Cl)c23)c1 | >2222 | 2200 | > 20000 | 9 | 8 | > 20000 | > 20000 | 8 | >2500 | –
3 | Cc1cc(C)cc(S(=O)(=O)c2c(C(N)=O)[nH]c3ccc(F)c(F)c23)c1 | >6667 | 50 | > 20000 | 3 | 1 | > 20000 | 1200 | 1 | >20000 | ID50 [10]: 1.7 nM; Selectivity index [11]: >1000; EC50 [12]: 130 nM; Selectivity index [13]: >870; Selectivity index [14]: >154; EC50 [15]: 23 nM; EC50 [16]: 84 nM; ID50 [17]: 90 nM; Selectivity index [18]: >238; ID50 [19]: 2050 nM; ID50 [20]: 1000 nM; EC50 [21]: 20 nM; CC50 [22]: > 20000 nM; CC50 [23]: > 20000 nM
4 | Cc1cc(C)cc(S(=O)(=O)c2c(C(N)=O)[nH]c3ccc(Cl)c(F)c23)c1 | >25000 | 4 | > 20000 | 0.8 | 0.5 | > 20000 | 300 | 0.5 | >40000 | ID50 [10]: 3 nM; Selectivity index [11]: >2500; EC50 [12]: 10 nM; Selectivity index [13]: >2000; Selectivity index [14]: >2000; EC50 [15]: 10 nM; EC50 [16]: 12 nM; ID50 [17]: 2 nM; Selectivity index [18]: >1667; ID50 [19]: 29 nM; ID50 [20]: 6 nM; EC50 [21]: 8 nM; CC50 [22]: > 20000 nM; CC50 [23]: > 20000 nM
5 | NC(=O)c1[nH]c2cc(F)c(F)cc2c1S(=O)(=O)c1ccccc1 | >1000 | 8200 | > 20000 | 20 | 16 | > 20000 | > 20000 | 16 | >1250 | –
6 | O=C1Nc2ccc(Cl)cc2[C@@](C#CC2CC2)(C(F)(F)F)O1 [EFAVIRENZ] | – | 10 | – | – | – | – | 200 | – | – | EC50 [12]: > 20000 nM; EC50 [16]: > 20000 nM; EC50 [21]: 7 nM; CC50 [22]: > 20000 nM
7 | Cc1cc(C)cc(S(=O)(=O)c2c(C(N)=O)[nH]c3cc(Cl)c(F)cc23)c1 | >400 | 700 | 18000 | 50 | 50 | > 20000 | 12000 | 50 | 360 | –
8 | Cc1cc(C)cc(S(=O)(=O)c2c(C(N)=O)[nH]c3cc(F)c(F)cc23)c1 | >667 | 400 | > 20000 | 30 | 20 | > 20000 | > 20000 | 20 | >1000 | –
9 | NC(=O)c1[nH]c2cc(Cl)c(Cl)cc2c1S(=O)(=O)c1ccccc1 | >200 | 1700 | > 20000 | 100 | 80 | > 20000 | > 20000 | 80 | >250 | –
10 | NC(=O)c1[nH]c2ccc(F)c(F)c2c1S(=O)(=O)c1ccccc1 | >2000 | 600 | > 20000 | 10 | 8 | > 20000 | 18000 | 8 | >2500 | –
11 | Cc1cc(C)cc(S(=O)(=O)c2c(C(N)=O)[nH]c3c(Cl)cc(Cl)cc23)c1 | >1667 | 4200 | > 20000 | 12 | 21 | > 20000 | > 20000 | 21 | >952 | –
12 | Cc1cc(C)cc(S(=O)(=O)c2c(C(N)=O)[nH]c3cc(F)c(Cl)cc23)c1 | >2000 | 50 | > 20000 | 10 | 12 | > 20000 | > 20000 | 12 | >1667 | –
13 | Cc1cc(C)cc(S(=O)(=O)c2c(C(N)=O)[nH]c3cc(Cl)c(Cl)cc23)c1 | >1333 | 1000 | > 20000 | 15 | 10 | > 20000 | > 20000 | 10 | >2000 | –
14 | Cc1ccnc2c1NC(=O)c1cccnc1N2C1CC1 [NEVIRAPINE] | – | 14000 | – | – | 50 | – | > 20000 | – | – | ID50 [10]: 400 nM; Selectivity index [11]: >222; EC50 [12]: > 20000 nM; EC50 [16]: > 20000 nM; ID50 [17]: 9000 nM; ID50 [19]: > 20000 nM; ID50 [20]: 7000 nM; EC50 [21]: 90 nM; CC50 [22]: > 20000 nM
